Entries after “also recorded” stand apart in the source; their conditions may differ. Each block holds one molecule with its values, some of them ahead of it.
What was measured:
DOHH = target: T1, DOHH (Homo sapiens, UniProt Q9BU89); test: Immunoblot of eIF5A modification (maturation) in 293T cells transfected with FLAG-tagged eIF5A; type: cell-based; conditions: for concentration range reducing the appearance of mature eIF5A: FLAG-eIF5A, NIH-353 immunoblot
T1 construct: endogenous in cells; host or cells: 293T cells
T1 sequence (Q9BU89 1-302): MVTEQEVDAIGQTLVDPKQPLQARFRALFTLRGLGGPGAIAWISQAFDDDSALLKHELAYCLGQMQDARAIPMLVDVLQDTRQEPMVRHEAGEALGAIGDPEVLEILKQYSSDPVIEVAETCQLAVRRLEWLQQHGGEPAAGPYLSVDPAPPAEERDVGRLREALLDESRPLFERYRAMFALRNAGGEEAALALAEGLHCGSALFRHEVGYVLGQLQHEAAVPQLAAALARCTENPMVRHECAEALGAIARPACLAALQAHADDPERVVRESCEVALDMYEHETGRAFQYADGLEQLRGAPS
Text: To examine the effect of compounds on the synthesis of modified eIF5A, 293T cells transfected with a FLAG-tagged eIF5A expression vector were simultaneously treated with ciclopirox (“CPX”) or deferiprone (“DEF”).
FLAG-eIF5A was monitored using NIH-353 and anti-FLAG antibodies (FIGS. 2A and 2B). FIG. 2A illustrates inhibition of eIF5A modification in 293T cells. Cells transfected with FLAG-tagged eIF5A were untreated or treated with increasing concentrations of CPX as indicated, or with agent P2. FIG. 2B illustrates cells transfected with FLAG-tagged eIF5A that were untreated or treated with increasing concentrations of DEF as indicated, or with DFOX. At 24 hours post-transfection, whole cell extract (“WCE”) was analyzed by immunoblotting with the NIH-353 anti-eIF5A antibody (upper panel) and anti-actin antibody (lower panel). The […] antibody reacts preferentially with post-translationally modified eIF5A. CPX reduced the appearance of mature eIF5A over the 3-30 μM concentration range, while DEF was effective at 200-400 μM. […] In addition to the CPX homolog Agent P2, deferoxamine (“DFOX”; Desferal™) was used as a control compound. DFOX, a metal-binding hydroxamate like CPX and Agent P2 (FIG. 3), is a globally used medicinal iron chelator.
FIG. 2C illustrates cells transfected with FLAG-tagged eIF5A that were treated with CPX (30 μM), P2 (30 μM), DEF (250 μM), DFOX (10 μM), or no compound (-). At 24 hours post transfection, WCE was analyzed by immunoblotting with the NIH-353 anti-eIF5A antibody (upper panel) and anti-FLAG antibody (lower panel). The control culture was transfected with empty vector and no compound was added.

eIF5A:DOHH complex = target: T2, eIF5A:DOHH complex (Homo sapiens, UniProt Q9BU89); test: Co-immunoprecipitation of the eIF5A:DOHH complex from transfected 293T cells; type: cell-based; conditions: CPX 30 μM, DEF 250 μM; for interaction between endogenous eIF5A and tagged DOHH: FLAG-DOHH transfected 293T cells; for association of endogenous DOHH with FLAG-eIF5A (co-immunoprecipitation): GC7 10 μM, P2 30 μM, DFOX 10 μM, 24 hours post-transfection
T2 construct: Endogenous DOHH co-immunoprecipitated with FLAG-eIF5A; expressed in transfected cells; host or cells: 293T cells (FLAG-eIF5A transfected; DOHH endogenous)
T2 sequence (Q9BU89 1-302): T1 sequence (Q9BU89 1-302)
Description: Unmodified eIF5A (lysine-50) immunoprecipitates with DHS, and deoxyhypusyl-eIF5A interacts with DOHH in vitro. The deoxyhypusyl-eIF5A:DOHH complex formed in vivo can be detected by immunoprecipitation from cell extracts. Taking advantage of this finding, the effects of the compounds on the enzyme-substrate interaction was tested, the results of which are illustrated in FIG. 2D. FLAG-eIF5A was expressed in 293T cells. 293T cells transfected with FLAG-eIF5A were untreated (-) or treated with GC7 (10 μM) or CPX (30 μM), P2 (30 μM), DEF (250 μM), or DFOX (10 μM). WCE prepared at 24 hours post-transfection was immunoprecipitated with anti-FLAG antibody. Complexes that immunoprecipitated with anti-FLAG antibody were immunoblotted and probed with antibodies against DOHH. […] As a further control, the DHS inhibitor GC7 was included in this assay. […] As expected, none of the compounds affected the immunoprecipitation of FLAG-eIF5A (FIG. 2D, middle panel; note that the band marked with an asterisk (*) is background due to IgG light chain) or the expression of endogenous eIF5A (FIG. 2D, bottom panel).
(§1) FIG. 2E illustrates 293T cells transfected with FLAG-DHS, FLAG-DOHH or empty vector (control) were treated with GC7, CPX, or DEF, or no drug (-) at the same concentration as in FIG. 2D. Immunoprecipitates obtained with anti-FLAG antibody were immunoblotted and probed with anti-eIF5A antibody (BD). WCE equivalent to 5% of the input was immunoblotted as a further control. Reciprocally, the interaction between endogenous eIF5A and tagged DOHH was inhibited by CPX and DEF (FIG. 2E, right). Similarly, the interaction of endogenous eIF5A with tagged DHS was inhibited by GC7 (FIG. 2E, left), but was resistant to CPX and DEF (not shown).

eIF5A:DHS complexes = target: T3, eIF5A:DHS complexes (Homo sapiens, UniProt P49366); test: Co-immunoprecipitation of endogenous eIF5A with FLAG-DHS from transfected 293T cells; type: cell-based; conditions: FLAG-DHS transfected 293T cells; GC7 10 μM, CPX 30 μM, DEF 250 μM
T3 construct: expressed in transfected cells; host or cells: 293T cells (FLAG-DHS transfected; eIF5A endogenous)
T3 sequence (P49366 1-369): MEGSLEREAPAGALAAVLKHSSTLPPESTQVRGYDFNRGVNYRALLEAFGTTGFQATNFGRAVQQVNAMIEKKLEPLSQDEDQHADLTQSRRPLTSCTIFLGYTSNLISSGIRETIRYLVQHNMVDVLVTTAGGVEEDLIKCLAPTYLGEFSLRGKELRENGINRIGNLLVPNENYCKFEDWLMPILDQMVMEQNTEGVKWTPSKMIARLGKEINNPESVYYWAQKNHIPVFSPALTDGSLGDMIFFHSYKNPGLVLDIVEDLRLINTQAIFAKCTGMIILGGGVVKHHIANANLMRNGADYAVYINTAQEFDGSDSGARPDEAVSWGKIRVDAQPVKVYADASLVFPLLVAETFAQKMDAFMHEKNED
Description: as §1

NMD = NMD luciferase reporter assay with vectors containing NMD signals associated with β039-thalassemia; type: cell-based; conditions: for submaximal effect of the NMD inhibitor when combined with nonsense suppressor G418: 15 μM CPX, 125 μM DEF, 200 μM HYD, G418 at 800 μM; for drug concentrations at which inhibition of NMD is seen: dose-dependent; for NMD in the thalassemia model system: ratio of Renilla luciferase from NMD-sensitive reporter to matched NMD-insensitive control
Description: The experiment of FIG. 5 used RNA silencing with small interfering RNAs (siRNAs) to deplete eIF5A itself, or either of the modifying enzymes required for hypusine formation. […] Data are shown as ratio of luciferase activities.
These experiments were carried out in the well-authenticated assay system using vectors containing NMD signals associated with β^039-thalassemia (Woeller C F, Gaspari M, Isken O, Maquat L.: EMBO Rep. 2008 May; 9(5):446-51).

[1] = cited from earlier work
[2] = 293T cells, 24 hours post-transfection

Compound: Cc1cc(C2CCCCC2)n(O)c(=O)c1 [CPX, ciclopirox]
- concentration range reducing the appearance of mature eIF5A (DOHH; [2]): 3 to 30 µM
- interaction between endogenous eIF5A and tagged DOHH (eIF5A:DOHH complex): inhibited
- association of endogenous DOHH with FLAG-eIF5A (co-immunoprecipitation) (eIF5A:DOHH complex): largely prevented; also recorded: destabilized
- interaction of endogenous eIF5A with tagged DHS (eIF5A:DHS complexes): resistant
- submaximal effect of the NMD inhibitor when combined with nonsense suppressor G418 (NMD): distinctly enhanced
- drug concentrations at which inhibition of NMD is seen (NMD; thalassemia model system): 15/30
- NMD in the thalassemia model system (NMD): inhibited
- levels in skin ([1]; topical preparations containing up to 57.5 mM): > 30 µM

Compound: CN[C@@H]1[C@@H](O)[C@@H](O[C@@H]2[C@@H](O)[C@H](O[C@H]3O[C@H]([C@@H](C)O)[C@@H](O)[C@H](O)[C@H]3N)[C@@H](N)C[C@H]2N)OC[C@]1(C)O [G418]
- effect on expression (nonsense suppressor, for comparison) (NMD; thalassemia model system): expression-enhancing effect

Compound: NNc1nncc2ccccc12 [HYD, hydralazine]
- drug concentrations at which inhibition of NMD is seen (NMD; thalassemia model system): 200/400

The next lines start with results.

- concentration range reducing the appearance of mature eIF5A (DOHH; [2]): 200 to 400 µM
- interaction between endogenous eIF5A and tagged DOHH (eIF5A:DOHH complex): inhibited
- interaction of endogenous eIF5A with tagged DHS (eIF5A:DHS complexes): resistant
- submaximal effect of the NMD inhibitor when combined with nonsense suppressor G418 (NMD): distinctly enhanced
- NMD inhibition by single compound (NMD; DEF at 125 μM, HYD at 200 μM, each alone): ineffective individually
- NMD in the thalassemia model system (NMD): inhibited
Compound: Cc1c(O)c(=O)ccn1C [DEF, deferiprone]
- association of endogenous DOHH with FLAG-eIF5A (co-immunoprecipitation) (eIF5A:DOHH complex): largely prevented; also recorded: destabilized
- drug concentrations at which inhibition of NMD is seen (NMD; thalassemia model system): 125/250
- concentration in serum ([1]; after oral medication): ≥ 250 µM

- association of endogenous DOHH with FLAG-eIF5A (co-immunoprecipitation) (eIF5A:DOHH complex): No DOHH was associated with FLAG-eIF5A
Compound: NCCCCCCCN=C(N)N [GC7]
- interaction of endogenous eIF5A with tagged DHS (eIF5A:DHS complexes): inhibited; also recorded: blocked formation

- activity in cell-based assays (DOHH): little or no activity
- effect on the appearance of mature FLAG-eIF5A (DOHH; 293T cells, 24 hours post-transfection, control compounds): little or no effect
Compound: Cc1ccn(O)c(=O)c1 [P2]
- association of endogenous DOHH with FLAG-eIF5A (co-immunoprecipitation) (eIF5A:DOHH complex): neither P2 or DFOX prevented; also recorded: Neither DFOX nor P2 had any effect

Reference: patent publication US9849146B2, “Inhibition of nonsense mediated mRNA decay by drugs that prevent hypusination of eukaryotic initiation factor 5A” (RUTGERS, THE STATE UNIVERSITY OF NEW JERSEY, priority 2009, dated 2017)
